Patent US20240426847A1, “COMPOSITIONS AND METHODS FOR THE DETERMINATION OF SODIUM CONCENTRATION” (The University of Chicago, priority 2023, published 2024)

Experiments:
[1] = molecular target: T1, PIKfyve (Mus musculus, UniProt Q9Z1T6); experiment: Pharmacological inhibition of macrophages, lysosomal Na^+ measured with RatiNa; assay type: cell-based, murine; conditions: RAW 264.7 macrophages, 100 nM apilimod 1 h; native lysosomes ~48 mM
T1 construct: endogenous in cells; host or cells: RAW 264.7 macrophages
Procedure: 1 μM RatiNa in prewarmed Opti-MEM was added to RAW macrophage and incubated for 2 h for maximum RatiNa uptake. Cells were then washed 3 times with PBS and incubated in prewarmed complete DMEM medium for 30 min to allow lysosome targeting of RatiNa. RatiNa in cell was then imaged in confocal microscope or widefield microscope.
RAW macrophage was treated with 100 nM apilimod for 1 h to inhibit PIKfyve. RatiNa treatment was done as stated previously with 100 nM apilimod in all medium. Cell was then imaged in confocal microscope.

[2] = ssDNA-CG Na^+ sensitivity by fluorescence; assay type: physicochemical; conditions: 1 mM and 150 mM NaCl, 100 nM ssDNA-CG, pH 7.4 potassium phosphate buffer
Procedure: FIGS. 12A-12B illustrate the validation of CG-DNA conjugate efficiency and Na^+ sensitivity. […] Molar ratio of DNA to CG is confirmed to be ˜ 1:1 confirming the coupling efficiency. […] 1 mM and 150 mM NaCl was added to 100 nM of ssDNA-CG in pH 7.4 potassium phosphate buffer. Fluorescence maximum at 545 increases more than 5-fold.
100 nM of RatiNa was aliquoted in UB buffer (10 mM HEPES, MES and potassium acetate, 140 mM NaCl/KCl). pH adjusted by HCl or KOH) Fluorescent emission spectra was taken by Fluoromax (Horiba) with the following collection parameters: For CG, dex=522 nm, range from 530 nm to 600 nm. For ATTO647N, dex=645 nm, range from 660 nm to 700 nm.

T1 sequence (Q9Z1T6 whole entry): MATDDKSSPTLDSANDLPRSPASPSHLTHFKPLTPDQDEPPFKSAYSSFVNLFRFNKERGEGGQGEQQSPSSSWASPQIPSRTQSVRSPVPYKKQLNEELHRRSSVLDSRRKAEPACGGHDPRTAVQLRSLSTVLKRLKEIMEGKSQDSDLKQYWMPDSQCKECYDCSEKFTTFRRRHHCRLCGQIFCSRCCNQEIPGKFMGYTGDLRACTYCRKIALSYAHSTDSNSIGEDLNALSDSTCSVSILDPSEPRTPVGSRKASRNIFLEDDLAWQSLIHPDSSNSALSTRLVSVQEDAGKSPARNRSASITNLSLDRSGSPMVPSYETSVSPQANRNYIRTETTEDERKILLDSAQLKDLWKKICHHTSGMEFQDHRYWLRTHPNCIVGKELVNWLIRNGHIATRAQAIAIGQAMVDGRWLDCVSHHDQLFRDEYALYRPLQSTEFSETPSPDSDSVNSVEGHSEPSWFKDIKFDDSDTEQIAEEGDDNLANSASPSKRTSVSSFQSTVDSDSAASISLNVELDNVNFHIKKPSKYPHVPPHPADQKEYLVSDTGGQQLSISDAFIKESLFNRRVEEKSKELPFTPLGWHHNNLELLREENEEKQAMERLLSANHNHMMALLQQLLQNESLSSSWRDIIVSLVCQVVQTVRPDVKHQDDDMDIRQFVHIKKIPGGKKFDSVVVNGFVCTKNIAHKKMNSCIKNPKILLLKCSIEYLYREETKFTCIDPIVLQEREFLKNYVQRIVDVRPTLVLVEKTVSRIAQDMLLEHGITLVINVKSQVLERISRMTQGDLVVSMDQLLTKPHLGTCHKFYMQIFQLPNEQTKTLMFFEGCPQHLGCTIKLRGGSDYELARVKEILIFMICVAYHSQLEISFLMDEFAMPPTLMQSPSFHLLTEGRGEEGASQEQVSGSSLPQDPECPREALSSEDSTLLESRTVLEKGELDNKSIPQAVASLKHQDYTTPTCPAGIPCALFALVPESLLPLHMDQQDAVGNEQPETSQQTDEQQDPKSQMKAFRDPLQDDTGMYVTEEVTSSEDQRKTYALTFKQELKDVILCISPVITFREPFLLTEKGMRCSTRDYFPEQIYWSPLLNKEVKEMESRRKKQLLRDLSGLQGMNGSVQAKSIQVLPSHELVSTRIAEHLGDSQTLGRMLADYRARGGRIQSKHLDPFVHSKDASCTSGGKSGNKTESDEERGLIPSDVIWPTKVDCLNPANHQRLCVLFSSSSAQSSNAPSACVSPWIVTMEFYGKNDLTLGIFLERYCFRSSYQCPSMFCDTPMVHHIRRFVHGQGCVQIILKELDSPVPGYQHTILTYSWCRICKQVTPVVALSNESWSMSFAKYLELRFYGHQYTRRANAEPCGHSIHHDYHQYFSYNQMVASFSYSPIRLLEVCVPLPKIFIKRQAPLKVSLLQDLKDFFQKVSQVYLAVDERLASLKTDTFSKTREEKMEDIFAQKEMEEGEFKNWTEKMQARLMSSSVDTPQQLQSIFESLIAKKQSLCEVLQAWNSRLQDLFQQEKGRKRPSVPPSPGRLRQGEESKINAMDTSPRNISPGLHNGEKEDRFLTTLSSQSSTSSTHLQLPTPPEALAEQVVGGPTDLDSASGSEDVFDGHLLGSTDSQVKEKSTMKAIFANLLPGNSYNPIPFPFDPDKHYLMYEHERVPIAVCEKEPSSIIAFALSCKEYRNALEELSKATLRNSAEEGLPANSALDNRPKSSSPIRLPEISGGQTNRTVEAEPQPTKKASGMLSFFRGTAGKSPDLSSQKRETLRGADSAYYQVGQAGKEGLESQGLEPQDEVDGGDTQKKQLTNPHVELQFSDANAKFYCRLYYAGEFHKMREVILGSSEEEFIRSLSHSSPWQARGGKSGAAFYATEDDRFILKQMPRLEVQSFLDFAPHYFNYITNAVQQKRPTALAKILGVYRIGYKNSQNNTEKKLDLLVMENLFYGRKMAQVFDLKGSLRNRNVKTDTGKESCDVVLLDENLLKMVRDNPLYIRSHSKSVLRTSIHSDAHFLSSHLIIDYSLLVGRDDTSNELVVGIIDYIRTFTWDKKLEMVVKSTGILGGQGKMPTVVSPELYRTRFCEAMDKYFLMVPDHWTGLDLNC

Row | Molecule | lysosomal Na^+ upon PIKfyve inhibition [1] [mM] | increase of fluorescence maximum at 545 [2]
1 | Cc1cccc(/C=N/Nc2cc(N3CCOCC3)nc(OCCc3ccccn3)n2)c1 [apilimod] | ~70 | 
2 | ssDNA-CG: 25mer ssDNA conjugated to CG dye by CuAAC coupling (CGATCAACACTGCATATATATACGACC; CG dye conjugated by CuAAC, chemistry not fully specified) |  | more than 5 fold
